The values below come from ChEMBL document CHEMBL5126509, “Dual target inhibitors based on EGFR: Promising anticancer agents for the treatment of cancers (2017-)” (Eur J Med Chem, 2022).

Assay [1] deals with T1, Epidermal growth factor receptor (Homo sapiens, UniProt P00533). The assay can be described thus: Inhibition of EGFR (unknown origin) incubated for 30 mins in presence of ATP by fluorescence based analysis.
The target in assay [2] is T1, Epidermal growth factor receptor. As to the kind of experiment: Inhibition of EGFR (unknown origin) by ADP-Glo kinase assay.
Assay [3] has as its target Tyrosine-protein kinase CSK (Homo sapiens, UniProt P41240). The assay can be described thus: Inhibition of CSK (unknown origin) by ADP-Glo kinase assay. (ADP-Glo turns the ADP formed in a reaction into a luminescent signal.)
For assay [4], the target named is Fibroblast growth factor receptor 1 (Homo sapiens, UniProt P11362). The assay can be described thus: Inhibition of N-terminal GST-tagged recombinant wild type human FGFR1 (398 to 822 residues) expressed in baculovirus infected Sf21 cells incubated for 1 hr in presence of ATP by caliper mobility shift assay.
Assay [5] has as its system NCI-H1975. The assay can be described thus: Antiproliferative activity against human NCI-H1975 cells assessed as cell growth inhibition incubated for 72 hrs by MTS assay. The settings on record: NCI-H1975, 72 h. Format: functional, cell-based. (Formazan colour is commonly taken as a measure of viable cells.)
Assay [6] concerns the target T2, Epidermal growth factor receptor (Homo sapiens, UniProt P00533, T790M). The assay can be described thus: Inhibition of human EGFR T790M mutant expressed in baculovirus expression system using CAGAGAIETDKEYYTVKD as substrate preincubated for 10 mins followed by substrate and ATP addition measured after 1 hr by TR-FRET assay.
For assay [7], the target named is T1, Epidermal growth factor receptor. The assay can be described thus: Inhibition of human EGFR expressed in baculovirus expression system using CAGAGAIETDKEYYTVKD as substrate preincubated for 10 mins followed by substrate and ATP addition measured after 1 hr by TR-FRET assay. A general note: Time-resolved FRET reads energy transfer from a long-lived donor to a nearby acceptor.

The next assay has as its target Tubulin. As to the kind of experiment: Inhibition of tubulin polymerization in human HCT-116 cells incubated for 18 to 24 hrs by horseradish peroxidase based ELISA method. Format: cell-based.
The test system of assay [8] is MCF7. The assay can be described thus: Antiproliferative activity against human MCF7 assessed as cell growth inhibition measured after 72 hrs by MTT assay. Format: functional, cell-based. The settings on record: MCF7, 72 h.
For assay [9], the system named is HCT-116. The assay can be described thus: Antiproliferative activity against human HCT-116 assessed as cell growth inhibition measured after 72 hrs by MTT assay. The format is functional, cell-based. The settings on record: HCT-116, 72 h.
Assay [10] addresses Insulin-like growth factor 1 receptor (Homo sapiens, UniProt P08069). As to the kind of experiment: Inhibition of IGF1R (unknown origin).
The next assay concerns SK-BR-3. The assay can be described thus: Antiproliferative activity against human SK-BR-3 cells assessed as cell growth inhibition. The format is functional, cell-based.
Assay [11] deals with T1, Epidermal growth factor receptor. The assay can be described thus: Inhibition of EGFR (unknown origin).
The subject of the next assay is A-431. As to the kind of experiment: Antiproliferative activity against human A-431 cells assessed as cell growth inhibition. Format: functional, cell-based.
For the next assay, the system named is HeLa. The assay can be described thus: Antiproliferative activity against human HeLa cells assessed as cell growth inhibition measured after 72 hrs by MTT assay. Format: functional, cell-based.
Another assay deals with KG-1. The assay can be described thus: Antiproliferative activity against human KG-1 cells assessed as cell growth inhibition measured after 72 hrs by MTT assay. The format is functional, cell-based. The settings on record: KG-1, 72 h.
The subject of another assay is MDA-MB-231. As to the kind of experiment: Antiproliferative activity against human MDA-MB-231 cells assessed as cell growth inhibition measured after 72 hrs by MTT assay. The format is functional, cell-based. The settings on record: MDA-MB-231, 72 h.
In the next assay the test system is A549. The assay can be described thus: Antiproliferative activity against human A549 cells assessed as cell growth inhibition measured after 72 hrs by MTT assay. Format: functional, cell-based. The settings on record: A549, 72 h.
For another assay, the system named is MDA-MB-468. As to the kind of experiment: Antiproliferative activity against human MDA-MB-468 cells assessed as cell growth inhibition measured after 72 hrs by MTT assay. Format: functional, cell-based. The settings on record: MDA-MB-468, 72 h.
The target in a further assay is Histone deacetylase. The assay can be described thus: Inhibition of HDAC in human HeLa cell nuclear extract using Boc-Lys (acetyl)-AMC as substrate preincubated for 5 mins followed by substrate addition measured after 30 mins by microplate reader analysis. Format: cell-free.
The target of assay [12] is T1, Epidermal growth factor receptor. The assay can be described thus: Inhibition of EGFR (unknown origin) using FAM-labeled peptide as substrate incubated for 10 mins in presence of ATP by caliper mobility shift assay.
The test system of assay [13] is HCT-116. The assay can be described thus: Antiproliferative activity against human HCT-116 cells assessed as cell growth inhibition incubated for 42 hrs by MTT assay. Format: functional, cell-based. The note with it: HCT-116, 42 h.
Another assay has as its system B16. As to the kind of experiment: Antiproliferative activity against mouse B16 cells assessed as cell growth inhibition incubated for 42 hrs by MTT assay. Format: functional, cell-based. The note with it: B16, 42 h.
Assay [14] concerns the target T3, Vascular endothelial growth factor receptor 2 (Homo sapiens, UniProt P35968). As to the kind of experiment: Inhibition of VEGFR-2 (unknown origin) using FAM-labeled peptide as substrate incubated for 10 mins in presence of ATP by caliper mobility shift assay.
For assay [15], the system named is MCF7. The assay can be described thus: Antiproliferative activity against human MCF7 cells assessed as cell growth inhibition incubated for 42 hrs by MTT assay. The note with it: MCF7, 42 h. Format: functional, cell-based.
In assay [16] the target is Hepatocyte growth factor receptor (Homo sapiens, UniProt P08581). As to the kind of experiment: Inhibition of c-MET (unknown origin) incubated for 1 hr by Z-lyte kinase assay.
The target of assay [17] is T2, Epidermal growth factor receptor. As to the kind of experiment: Inhibition of EGFR T790M mutant (unknown origin) incubated for 1 hr by Z-lyte kinase assay.
Assay [18] shares this target. As to the kind of experiment: Inhibition of EGFR T790M mutant (unknown origin).
The target in assay [19] is T3, Vascular endothelial growth factor receptor 2. The assay can be described thus: Inhibition of VEGFR2 (unknown origin).
For assay [20], the target named is Epidermal growth factor receptor (Homo sapiens, UniProt P00533, L858R/T790M). As to the kind of experiment: Inhibition of EGFR L858R/T790M mutant (unknown origin).
Assay [21] deals with NCI-H1975. As to the kind of experiment: Antiproliferative activity against human NCI-H1975 cells assessed as cell growth inhibition. The format is functional, cell-based.
Assay [22] concerns the target T1, Epidermal growth factor receptor. The assay can be described thus: Binding affinity to GST-tagged human recombinant EGFR expressed in baculovirus infected Sf9 insect cells assessed as inhibition constant using poly(Glu,Tyr) 4:1 as substrate incubated for 60 mins in presence of [gamma33P]ATP by microplate scintillation counter analysis.
The target in assay [23] is Platelet-derived growth factor receptor beta (Homo sapiens, UniProt P09619). The assay can be described thus: Binding affinity to GST-tagged human recombinant PDFGR beta expressed in baculovirus infected Sf9 insect cells assessed as inhibition constant using poly(Ala,Glu,Lys,Tyr) 6:2:5.1 as substrate incubated for 60 mins in presence of [gamma33P]ATP by microplate scintillation counter analysis.

Sequence of Hepatocyte growth factor receptor (P08581 whole entry): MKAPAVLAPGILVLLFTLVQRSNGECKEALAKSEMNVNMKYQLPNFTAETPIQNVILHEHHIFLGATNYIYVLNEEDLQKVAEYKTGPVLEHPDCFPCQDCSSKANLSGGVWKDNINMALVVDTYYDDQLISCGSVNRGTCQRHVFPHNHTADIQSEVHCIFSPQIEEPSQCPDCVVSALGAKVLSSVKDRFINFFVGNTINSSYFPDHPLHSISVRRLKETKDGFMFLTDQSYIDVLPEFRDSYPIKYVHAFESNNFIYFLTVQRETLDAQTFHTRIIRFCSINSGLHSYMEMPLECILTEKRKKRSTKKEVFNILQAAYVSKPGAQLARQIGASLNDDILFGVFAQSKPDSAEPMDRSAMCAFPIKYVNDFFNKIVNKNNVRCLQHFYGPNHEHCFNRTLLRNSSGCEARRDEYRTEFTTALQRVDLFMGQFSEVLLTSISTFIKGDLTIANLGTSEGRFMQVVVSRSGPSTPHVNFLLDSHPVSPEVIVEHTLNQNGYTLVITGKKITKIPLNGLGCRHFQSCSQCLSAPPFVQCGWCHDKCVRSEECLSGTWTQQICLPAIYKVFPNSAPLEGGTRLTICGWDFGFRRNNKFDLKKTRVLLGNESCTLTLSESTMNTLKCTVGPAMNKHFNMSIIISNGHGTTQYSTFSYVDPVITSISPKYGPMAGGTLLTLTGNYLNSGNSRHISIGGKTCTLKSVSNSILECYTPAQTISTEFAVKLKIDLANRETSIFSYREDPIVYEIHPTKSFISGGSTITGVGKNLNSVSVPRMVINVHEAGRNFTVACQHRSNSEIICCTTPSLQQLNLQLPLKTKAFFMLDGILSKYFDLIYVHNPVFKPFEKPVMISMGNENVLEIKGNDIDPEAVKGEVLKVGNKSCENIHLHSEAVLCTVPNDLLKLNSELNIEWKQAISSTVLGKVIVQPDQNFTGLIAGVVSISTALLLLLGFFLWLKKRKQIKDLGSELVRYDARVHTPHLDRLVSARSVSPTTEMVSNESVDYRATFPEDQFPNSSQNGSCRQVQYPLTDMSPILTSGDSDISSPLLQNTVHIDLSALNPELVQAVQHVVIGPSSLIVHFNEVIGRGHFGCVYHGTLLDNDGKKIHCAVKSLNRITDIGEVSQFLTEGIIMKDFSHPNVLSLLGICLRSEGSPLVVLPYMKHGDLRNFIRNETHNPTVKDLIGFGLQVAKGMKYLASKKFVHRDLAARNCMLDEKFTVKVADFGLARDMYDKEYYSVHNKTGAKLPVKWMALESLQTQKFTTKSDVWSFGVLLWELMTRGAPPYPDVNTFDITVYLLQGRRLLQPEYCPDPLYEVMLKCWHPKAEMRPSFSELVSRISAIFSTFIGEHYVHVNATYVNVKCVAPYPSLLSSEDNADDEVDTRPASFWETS
T3 sequence (P35968 whole entry): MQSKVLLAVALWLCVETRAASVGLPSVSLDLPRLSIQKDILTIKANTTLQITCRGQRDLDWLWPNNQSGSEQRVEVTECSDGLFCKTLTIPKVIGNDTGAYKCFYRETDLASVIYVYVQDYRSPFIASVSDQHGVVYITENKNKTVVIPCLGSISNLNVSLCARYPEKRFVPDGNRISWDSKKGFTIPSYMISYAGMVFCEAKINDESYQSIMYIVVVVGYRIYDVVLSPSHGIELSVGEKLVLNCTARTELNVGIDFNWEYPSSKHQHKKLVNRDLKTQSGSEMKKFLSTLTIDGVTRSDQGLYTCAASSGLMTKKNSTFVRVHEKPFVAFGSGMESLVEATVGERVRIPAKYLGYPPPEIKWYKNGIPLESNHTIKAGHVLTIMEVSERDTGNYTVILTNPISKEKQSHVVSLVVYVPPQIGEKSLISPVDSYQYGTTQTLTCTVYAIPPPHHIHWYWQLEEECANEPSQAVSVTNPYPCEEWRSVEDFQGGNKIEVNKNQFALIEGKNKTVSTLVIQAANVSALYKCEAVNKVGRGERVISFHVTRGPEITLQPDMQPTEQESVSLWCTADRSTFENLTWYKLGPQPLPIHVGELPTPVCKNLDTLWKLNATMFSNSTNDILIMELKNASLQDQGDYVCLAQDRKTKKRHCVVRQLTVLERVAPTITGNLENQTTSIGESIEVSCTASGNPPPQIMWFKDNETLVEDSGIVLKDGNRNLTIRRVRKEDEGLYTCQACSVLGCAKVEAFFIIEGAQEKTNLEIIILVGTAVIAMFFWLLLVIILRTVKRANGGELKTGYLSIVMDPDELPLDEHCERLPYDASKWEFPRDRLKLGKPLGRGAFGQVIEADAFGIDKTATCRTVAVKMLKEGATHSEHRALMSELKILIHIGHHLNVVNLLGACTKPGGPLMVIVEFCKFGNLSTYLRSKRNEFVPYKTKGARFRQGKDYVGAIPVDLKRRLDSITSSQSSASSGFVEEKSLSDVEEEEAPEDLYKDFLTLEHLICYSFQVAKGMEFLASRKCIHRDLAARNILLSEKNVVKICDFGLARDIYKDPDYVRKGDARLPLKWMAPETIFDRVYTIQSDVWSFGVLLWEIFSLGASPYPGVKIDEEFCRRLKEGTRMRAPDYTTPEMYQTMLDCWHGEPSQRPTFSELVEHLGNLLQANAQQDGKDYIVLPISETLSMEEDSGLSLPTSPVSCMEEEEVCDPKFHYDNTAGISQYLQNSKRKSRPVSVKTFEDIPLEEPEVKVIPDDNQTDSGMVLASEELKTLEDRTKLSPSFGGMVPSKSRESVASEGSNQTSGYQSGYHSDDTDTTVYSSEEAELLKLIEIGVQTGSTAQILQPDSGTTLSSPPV
T1 sequence (P00533 whole entry): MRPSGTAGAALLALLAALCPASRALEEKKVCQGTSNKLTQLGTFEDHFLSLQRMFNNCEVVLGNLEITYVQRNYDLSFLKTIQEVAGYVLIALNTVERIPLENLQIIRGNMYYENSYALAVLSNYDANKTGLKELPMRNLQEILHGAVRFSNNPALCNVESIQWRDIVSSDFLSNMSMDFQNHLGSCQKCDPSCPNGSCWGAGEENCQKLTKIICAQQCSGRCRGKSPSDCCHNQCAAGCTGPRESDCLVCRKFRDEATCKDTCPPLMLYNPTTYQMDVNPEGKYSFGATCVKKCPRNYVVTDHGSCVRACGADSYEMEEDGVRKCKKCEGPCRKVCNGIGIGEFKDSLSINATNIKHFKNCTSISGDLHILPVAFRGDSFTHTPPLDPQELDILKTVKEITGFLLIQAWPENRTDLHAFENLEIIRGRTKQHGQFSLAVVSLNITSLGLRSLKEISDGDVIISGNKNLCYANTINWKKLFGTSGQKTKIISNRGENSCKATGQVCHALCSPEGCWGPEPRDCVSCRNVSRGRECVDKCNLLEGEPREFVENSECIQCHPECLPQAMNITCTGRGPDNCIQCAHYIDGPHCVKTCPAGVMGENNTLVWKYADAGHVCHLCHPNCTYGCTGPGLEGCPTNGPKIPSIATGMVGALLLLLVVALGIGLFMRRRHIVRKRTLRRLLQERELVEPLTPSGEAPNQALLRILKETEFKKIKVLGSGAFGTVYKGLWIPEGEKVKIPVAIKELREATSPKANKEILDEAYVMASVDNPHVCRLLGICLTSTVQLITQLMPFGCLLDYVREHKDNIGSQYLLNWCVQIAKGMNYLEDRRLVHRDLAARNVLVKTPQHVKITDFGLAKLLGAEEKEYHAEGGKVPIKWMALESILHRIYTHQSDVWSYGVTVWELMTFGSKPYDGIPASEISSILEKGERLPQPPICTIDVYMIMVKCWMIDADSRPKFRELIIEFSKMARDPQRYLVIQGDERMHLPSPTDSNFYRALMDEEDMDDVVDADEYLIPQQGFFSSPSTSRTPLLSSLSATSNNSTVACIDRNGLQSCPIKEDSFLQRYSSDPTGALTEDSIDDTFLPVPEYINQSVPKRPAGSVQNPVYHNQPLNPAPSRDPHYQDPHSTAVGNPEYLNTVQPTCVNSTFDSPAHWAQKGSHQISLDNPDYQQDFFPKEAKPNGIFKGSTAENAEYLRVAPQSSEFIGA
T2 sequence (P00533 25-1210 T790M limits assumed): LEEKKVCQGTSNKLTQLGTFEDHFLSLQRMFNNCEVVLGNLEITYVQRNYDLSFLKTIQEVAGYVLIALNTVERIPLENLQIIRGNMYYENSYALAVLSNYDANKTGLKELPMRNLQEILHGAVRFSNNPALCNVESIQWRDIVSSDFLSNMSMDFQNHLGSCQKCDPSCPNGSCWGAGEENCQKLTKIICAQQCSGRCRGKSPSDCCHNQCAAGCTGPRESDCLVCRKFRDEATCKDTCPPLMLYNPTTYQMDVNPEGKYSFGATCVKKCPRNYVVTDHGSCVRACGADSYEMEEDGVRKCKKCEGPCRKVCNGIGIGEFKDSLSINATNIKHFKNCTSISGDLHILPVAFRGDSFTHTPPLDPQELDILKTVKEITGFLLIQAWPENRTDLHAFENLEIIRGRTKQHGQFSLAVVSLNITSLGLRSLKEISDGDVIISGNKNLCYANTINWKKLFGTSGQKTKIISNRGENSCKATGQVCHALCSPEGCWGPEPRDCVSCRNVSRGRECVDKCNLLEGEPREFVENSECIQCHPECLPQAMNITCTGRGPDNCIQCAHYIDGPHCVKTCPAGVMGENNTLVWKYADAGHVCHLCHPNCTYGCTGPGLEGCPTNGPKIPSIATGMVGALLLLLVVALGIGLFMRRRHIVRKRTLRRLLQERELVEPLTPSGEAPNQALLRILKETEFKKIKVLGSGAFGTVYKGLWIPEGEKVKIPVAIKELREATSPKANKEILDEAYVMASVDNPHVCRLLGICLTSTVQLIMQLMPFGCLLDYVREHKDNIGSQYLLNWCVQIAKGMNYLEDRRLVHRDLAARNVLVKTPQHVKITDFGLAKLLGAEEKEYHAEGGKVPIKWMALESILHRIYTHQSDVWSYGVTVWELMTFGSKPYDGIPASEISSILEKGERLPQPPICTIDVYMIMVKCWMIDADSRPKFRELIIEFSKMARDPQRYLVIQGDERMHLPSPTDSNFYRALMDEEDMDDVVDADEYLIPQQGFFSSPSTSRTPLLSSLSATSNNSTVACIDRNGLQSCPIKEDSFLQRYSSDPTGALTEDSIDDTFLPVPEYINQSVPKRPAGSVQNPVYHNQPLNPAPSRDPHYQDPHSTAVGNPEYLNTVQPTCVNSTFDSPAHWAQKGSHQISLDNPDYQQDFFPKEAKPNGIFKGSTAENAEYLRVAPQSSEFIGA

In general, IC50 refers to the midpoint of a concentration-inhibition curve. As for `Cc1nn(-c2ccc(F)cc2)c2ncnc(Nc3ccc(F)c(Cl)c3)c12`, the IC50 in assay [1] was determined as 186 nM.
Turning to `COc1ccc(CCOc2ccc(C(=O)/C=C/c3ccc(O)c(O)c3)cc2OC)cc1OC`, the IC50 in assay [2] turned out to be 11.1 µM; in assay [3], 5.16 µM.
For the molecule `CN1CCN(c2ccc(Nc3ncc(Br)c(Nc4ccc5cn[nH]c5c4)n3)cc2)CC1`, the IC50 in assay [4] was found to be 17.6 nM; in the assay with NCI-H1975 [5] it was 336 nM.
For `O=C(Cc1ccccc1)Nc1cccc(-c2nc3n(c2-c2ccnc(Nc4ccc(N5CCOCC5)cc4)n2)CCS3)c1`, the concentration for half-maximal inhibition (IC50) in assay [6] came out at 66 nM; in assay [7] it was 35.5 nM.
`CCc1nnc2c(Nc3ccc(C(=O)/C=C/c4cc(OC)c(OC)c(OC)c4)cc3)nc3ccccc3n12`: the results for the IC50 on Tubulin, in the assay on MCF7 [8] and with HCT-116 [9] were 8.84 µM, 1650 nM and 3.61 µM, respectively.
Consider `CCOc1cc2ncc(C#N)c(Nc3ccc(OCc4ccccc4)cc3)c2cc1NC(=O)/C=C/c1cccnc1`, for which the IC50 in [10] came to 908 nM; with SK-BR-3, 1930 nM; in assay [11] it was 597 nM; with A-431, 1890 nM.
`COc1cc(NC(=O)CCCCCCC(=O)NO)ccc1Nc1nccc(-c2cn(C)c3ccccc23)n1`: the IC50 in the assay with HeLa was 1850 nM; in the assay with KG-1 it was 420 nM; with MDA-MB-231, 600 nM; in the assay on A549, 2190 nM; in the assay with MDA-MB-468, 230 nM; at Histone deacetylase, 85 nM.
Turning to `COc1cc2ncnc(Sc3cccc(NC(=S)Nc4ccc(Br)c(C(F)(F)F)c4)c3)c2cc1OC`, the half-inhibitory concentration (IC50) in assay [12] amounted to 10 nM; in the assay with HCT-116 [13], 5.57 µM; with B16 it was 5.57 µM; in [14] it was 80 nM; in the assay on MCF7 [15] it was 5.57 µM.
For `CC(C)c1ccc(Cn2cc(-c3cc(-c4ccc(Br)cc4)nc(N)n3)c3ccccc32)cc1`, the IC50 in assay [16] came to 595 nM; in assay [17] it was 94 nM.
With `C=CC(=O)Nc1cc2c(Nc3ccc(Br)cc3F)ncnc2cc1OCCNC(=O)CN(C)C`, the IC50 turned out to be 11 nM in assay [18]; 103 nM in assay [19]; 2 nM in assay [11]; 14 nM in the assay with A-431; 3 nM in assay [20]; 130 nM with NCI-H1975 [21].
Usually Ki stands for a dissociation constant, usually derived from enzyme kinetics or from competition with a known ligand. Turning to `Nc1nc(Nc2ccc(COc3cccc(F)c3)cc2)c2c(n1)[nH]c1ccc(O)cc12`, the Ki amounted to 170 nM in assay [22] and 81 nM in [23].
Consider `CCc1ccc(Cn2cc(-c3cc(-c4ccc(Br)cc4)nc(N)n3)c3ccccc32)cc1`, for which the IC50 was determined as 518 nM in assay [16] and 97 nM in [17].
With `Nc1nc(-c2ccc(Br)cc2)cc(-c2cn(Cc3cccc(Cl)c3)c3ccccc23)n1`, the IC50 in [16] was 101 nM; in [17], 195 nM.
In the case of `COc1cc2ncnc(Oc3cccc(NC(=S)Nc4ccc(Cl)c(C(F)(F)F)c4)c3)c2cc1OC`, the half-maximal inhibitory concentration (IC50) in assay [12] turned out to be 20 nM; in the assay on HCT-116 [13], 5.57 µM; in the assay on B16, 5.57 µM; in assay [14], 50 nM; with MCF7 [15] it was 5.57 µM.
Consider `CCOc1cc2ncc(C#N)c(Nc3ccc(OCc4ccccn4)c(Cl)c3)c2cc1NC(=O)/C=C/CN(C)C` [NERATINIB], for which the IC50 in the assay with A-431 amounted to 2150 nM.
